{"source": "patent US8192962B2", "about": "“Processes for detecting toxic substances” (Daikin Industries, Ltd., priority 2001, dated 2012)", "system": "Mitochondria-located protein genes", "assay": "DNA chip mRNA expression in yeast, mitochondria-located protein genes (Table 2)", "format": "cell-based, Saccharomyces cerevisiae S288C", "conditions": "cells incubated two hours with the chemical substance", "how_it_was_run": "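Value is the scanned fluorescence intensity ratio of exposed versus chemical-free cells. Log-phase S288C yeast in YPD at 25° C. received one toxic substance for two hours, dosed to slow growth without killing; Cy3/Cy5-labeled cDNA from oligo-dT-purified mRNA was hybridized to a whole-genome chip at 65° C.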", "data": [{"smiles": "Cl[C@H]1[C@H](Cl)[C@@H](Cl)[C@@H](Cl)[C@H](Cl)[C@H]1Cl", "note": "[(7), γ-hexachlorocyclohexane]", "values": [{"measurement": "The level of expressed mRNA in the presence of chemical substance/The level of expressed mRNA in the absence of chemical substance", "setting": "yeast gene YJR121W", "result": 1.0}, {"measurement": "The level of expressed mRNA in the presence of chemical substance/The level of expressed mRNA in the absence of chemical substance", "setting": "yeast gene YKL003C", "result": 1.4}, {"measurement": "The level of expressed mRNA in the presence of chemical substance/The level of expressed mRNA in the absence of chemical substance", "setting": "yeast gene YKL016C", "result": 1.5}, {"measurement": "The level of expressed mRNA in the presence of chemical substance/The level of expressed mRNA in the absence of chemical substance", "setting": "yeast gene YKL141W", "result": 0.5}, {"measurement": "The level of expressed mRNA in the presence of chemical substance/The level of expressed mRNA in the absence of chemical substance", "setting": "yeast gene YKL142W", "result": 6.9}, {"measurement": "The level of expressed mRNA in the presence of chemical substance/The level of expressed mRNA in the absence of chemical substance", "setting": "yeast gene YKL148C", "result": 0.6}, {"measurement": "The level of expressed mRNA in the presence of chemical substance/The level of expressed mRNA in the absence of chemical substance", "setting": "yeast gene YKL170W", "result": 1.5}, {"measurement": "The level of expressed mRNA in the presence of chemical substance/The level of expressed mRNA in the absence of chemical substance", "setting": "yeast gene YKL194C", "result": 2.1}, {"measurement": "The level of expressed mRNA in the presence of chemical substance/The level of expressed mRNA in the absence of chemical substance", "setting": "yeast gene YKR066C", "result": 0.5}, {"measurement": "The level of expressed mRNA in the presence of chemical substance/The level of expressed mRNA in the absence of chemical substance", "setting": "yeast gene YLL041C", "result": 0.3}, {"measurement": "The level of expressed mRNA in the presence of chemical substance/The level of expressed mRNA in the absence of chemical substance", "setting": "yeast gene YLR038C", "result": 1.0}, {"measurement": "The level of expressed mRNA in the presence of chemical substance/The level of expressed mRNA in the absence of chemical substance", "setting": "yeast gene YLR259C", "result": 1.8}, {"measurement": "The level of expressed mRNA in the presence of chemical substance/The level of expressed mRNA in the absence of chemical substance", "setting": "yeast gene YLR295C", "result": 1.1}, {"measurement": "The level of expressed mRNA in the presence of chemical substance/The level of expressed mRNA in the absence of chemical substance", "setting": "yeast gene YLR304C", "result": 0.6}, {"measurement": "The level of expressed mRNA in the presence of chemical substance/The level of expressed mRNA in the absence of chemical substance", "setting": "yeast gene YLR348C", "result": 0.9}, {"measurement": "The level of expressed mRNA in the presence of chemical substance/The level of expressed mRNA in the absence of chemical substance", "setting": "yeast gene YML054C", "result": 1.2}, {"measurement": "The level of expressed mRNA in the presence of chemical substance/The level of expressed mRNA in the absence of chemical substance", "setting": "yeast gene YML120C", "result": 0.8}, {"measurement": "The level of expressed mRNA in the presence of chemical substance/The level of expressed mRNA in the absence of chemical substance", "setting": "yeast gene YML129C", "result": 1.8}, {"measurement": "The level of expressed mRNA in the presence of chemical substance/The level of expressed mRNA in the absence of chemical substance", "setting": "yeast gene YMR023C", "result": 1.9}, {"measurement": "The level of expressed mRNA in the presence of chemical substance/The level of expressed mRNA in the absence of chemical substance", "setting": "yeast gene YMR035W", "result": 2.3}, {"measurement": "The level of expressed mRNA in the presence of chemical substance/The level of expressed mRNA in the absence of chemical substance", "setting": "yeast gene YMR083W", "result": 1.7}, {"measurement": "The level of expressed mRNA in the presence of chemical substance/The level of expressed mRNA in the absence of chemical substance", "setting": "yeast gene YMR089C", "result": 1.2}, {"measurement": "The level of expressed mRNA in the presence of chemical substance/The level of expressed mRNA in the absence of chemical substance", "setting": "yeast gene YMR152W", "result": 0.8}, {"measurement": "The level of expressed mRNA in the presence of chemical substance/The level of expressed mRNA in the absence of chemical substance", "setting": "yeast gene YMR203W", "result": 0.8}, {"measurement": "The level of expressed mRNA in the presence of chemical substance/The level of expressed mRNA in the absence of chemical substance", "setting": "yeast gene YMR267W", "result": 1.2}, {"measurement": "The level of expressed mRNA in the presence of chemical substance/The level of expressed mRNA in the absence of chemical substance", "setting": "yeast gene YNL055C", "result": 1.2}, {"measurement": "The level of expressed mRNA in the presence of chemical substance/The level of expressed mRNA in the absence of chemical substance", "setting": "yeast gene YNL071W", "result": 1.4}, {"measurement": "The level of expressed mRNA in the presence of chemical substance/The level of expressed mRNA in the absence of chemical substance", "setting": "yeast gene YNL073W", "result": 1.1}, {"measurement": "The level of expressed mRNA in the presence of chemical substance/The level of expressed mRNA in the absence of chemical substance", "setting": "yeast gene YNL104C", "result": 0.6}, {"measurement": "The level of expressed mRNA in the presence of chemical substance/The level of expressed mRNA in the absence of chemical substance", "setting": "yeast gene YNL256W", "result": 0.6}, {"measurement": "The level of expressed mRNA in the presence of chemical substance/The level of expressed mRNA in the absence of chemical substance", "setting": "yeast gene YOL096C", "result": 1.7}, {"measurement": "The level of expressed mRNA in the presence of chemical substance/The level of expressed mRNA in the absence of chemical substance", "setting": "yeast gene YOR020C", "result": 1.7}, {"measurement": "The level of expressed mRNA in the presence of chemical substance/The level of expressed mRNA in the absence of chemical substance", "setting": "yeast gene YOR037W", "result": 2.5}, {"measurement": "The level of expressed mRNA in the presence of chemical substance/The level of expressed mRNA in the absence of chemical substance", "setting": "yeast gene YOR100C", "result": 1.6}, {"measurement": "The level of expressed mRNA in the presence of chemical substance/The level of expressed mRNA in the absence of chemical substance", "setting": "yeast gene YOR130C", "result": 1.3}, {"measurement": "The level of expressed mRNA in the presence of chemical substance/The level of expressed mRNA in the absence of chemical substance", "setting": "yeast gene YOR142W", "result": 1.0}, {"measurement": "The level of expressed mRNA in the presence of chemical substance/The level of expressed mRNA in the absence of chemical substance", "setting": "yeast gene YOR150W", "result": 1.2}, {"measurement": "The level of expressed mRNA in the presence of chemical substance/The level of expressed mRNA in the absence of chemical substance", "setting": "yeast gene YOR176W", "result": 0.5}, {"measurement": "The level of expressed mRNA in the presence of chemical substance/The level of expressed mRNA in the absence of chemical substance", "setting": "yeast gene YOR187W", "result": 1.5}, {"measurement": "The level of expressed mRNA in the presence of chemical substance/The level of expressed mRNA in the absence of chemical substance", "setting": "yeast gene YOR316C", "result": 1.4}, {"measurement": "The level of expressed mRNA in the presence of chemical substance/The level of expressed mRNA in the absence of chemical substance", "setting": "yeast gene YPL040C", "result": 0.8}, {"measurement": "The level of expressed mRNA in the presence of chemical substance/The level of expressed mRNA in the absence of chemical substance", "setting": "yeast gene YPL134C", "result": 1.2}, {"measurement": "The level of expressed mRNA in the presence of chemical substance/The level of expressed mRNA in the absence of chemical substance", "setting": "yeast gene YPL135W", "result": 1.2}, {"measurement": "The level of expressed mRNA in the presence of chemical substance/The level of expressed mRNA in the absence of chemical substance", "setting": "yeast gene YPL215W", "result": 0.7}, {"measurement": "The level of expressed mRNA in the presence of chemical substance/The level of expressed mRNA in the absence of chemical substance", "setting": "yeast gene YPL262W", "result": 1.3}, {"measurement": "The level of expressed mRNA in the presence of chemical substance/The level of expressed mRNA in the absence of chemical substance", "setting": "yeast gene YPR024W", "result": 1.4}, {"measurement": "The level of expressed mRNA in the presence of chemical substance/The level of expressed mRNA in the absence of chemical substance", "setting": "yeast gene YPR037C", "result": 1.2}, {"measurement": "The level of expressed mRNA in the presence of chemical substance/The level of expressed mRNA in the absence of chemical substance", "setting": "yeast gene YPR047W", "result": 1.8}, {"measurement": "The level of expressed mRNA in the presence of chemical substance/The level of expressed mRNA in the absence of chemical substance", "setting": "yeast gene YPR067W", "result": 1.5}, {"measurement": "The level of expressed mRNA in the presence of chemical substance/The level of expressed mRNA in the absence of chemical substance", "setting": "yeast gene YPR134W", "result": 1.5}]}]}
